Results as given in patent US20220227789A1, “NOVEL INDOLIZINE-2-CARBOXAMIDES ACTIVE AGAINST THE HEPATITIS B VIRUS (HBV)” (AiCuris GmbH & Co. KG, priority 2019, published 2022).
Like-named read-outs stand apart in the source and are kept apart here.

What was measured:
[1] = tested on: HBV; assay: HBV replication assay: HBV DNA from the supernatants of HepAD38 cells; format: cell-based; details: Hepatitis B virus, 144 h, HBV DNA in supernatant by qPCR at day 6, read-out: Cell Activity
Method: Determination of HBV DNA from the Supernatants of HepAD38 Cells
The anti-HBV activity was analysed in the stable transfected cell line HepAD38, which has been described to secrete high levels of HBV virion particles (Ladner et al., 1997). In brief, HepAD38 cells were cultured at 37° C. at 5% CO2 and 95% humidity in 200 μl maintenance medium, which was Dulbecco's modified Eagle's medium/Nutrient Mixture F-12 (Gibco, Karlsruhe), 10% fetal bovine serum (PAN Biotech Aidenbach) supplemented with 50 μg/ml penicillin/streptomycin (Gibco, Karlsruhe), 2 mM L-glutamine (PAN Biotech, Aidenbach), 400 μg/ml G418 (AppliChem, Darmstadt) and 0.3 μg/ml tetracycline. Cells were subcultured once a week in a 1:5 ratio, but were usually not passaged more than ten times. For the assay 60,000 cells were seeded in maintenance medium without any tetracycline into each well of a 96-well plate and treated with serial half-log dilutions of test compound. To minimize edge effects the outer 36 wells of the plate were not used but were filled with assay medium. On each assay plate six wells for the virus control (untreated HepAD38 cells) and six wells for the cell control (HepAD38 cells treated with 0.3 μg/ml tetracycline) were allocated, respectively. In addition, one plate set with reference inhibitors like BAY 41-4109, entecavir, and lamivudine instead of screening compounds were prepared in each experiment. In general, experiments were performed thrice in triplicates. At day 6 HBV DNA from 100 μl filtrated cell culture supernatant (AcroPrep Advance 96 Filter Plate, […] Supor membran, PALL GmbH, Dreieich) was automatically purified on the MagNa Pure LC instrument using the MagNA Pure 96 DNA and Viral NA Small Volume Kit (Roche Diagnostics, Mannheim) according to the instructions of the manufacturer. EC50 values were calculated from relative copy numbers of HBV DNA In brief, 5 μl of the 100 μl eluate containing HBV DNA were subjected to PCR LC480 Probes Master Kit (Roche) together with 1 μM antisense primer […], 0.5 μM sense primer […], 0.3 μM hybprobes […]-FL and LC640-[…]-PH (TIBMolBiol, Berlin) to a final volume of […]. The PCR was performed on the Light Cycler 480 real time system (Roche Diagnostics, Mannheim) using the following protocol: Pre-incubation for 1 min at 95° C., amplification: 40 cycles×(10 sec at 95° C., 50 sec at 60° C., 1 sec at 70° C.), cooling for 10 sec at 40° C. Viral load was quantitated against known standards using HBV plasmid DNA of pCH-9/3091 (Nassal et al., 1990, Cell 63: 1357-1363) and the LightCycler 480 SW 1.5 software (Roche Diagnostics, Mannheim) and EC50 values were calculated using non-linear regression with GraphPad Prism 6 (GraphPad Software Inc., La Jolla, USA).

[2] = molecular target: T1, HBV core protein (C-terminal truncated, 149 aa assembly domain) (Hepatitis B virus genotype D subtype adw, UniProt P03147, C107A/C48A/C61A); assay: Biochemical capsid assembly assay (fluorescence quenching)
T1 construct: The C-terminal truncated core protein containing 149 amino acids of the N-terminal assembly domain; made in house; host or cells: E. coli BL21 (DE3) Rosetta2, plasmid pET21b
T1 sequence (P03147 1-150, looked up, stated change not applied): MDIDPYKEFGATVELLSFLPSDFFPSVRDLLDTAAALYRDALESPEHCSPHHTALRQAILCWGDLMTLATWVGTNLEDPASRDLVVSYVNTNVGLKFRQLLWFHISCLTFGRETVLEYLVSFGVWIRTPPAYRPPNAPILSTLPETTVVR
Method: Biochemical Capsid Assembly Assay
The screening for assembly effector activity was done based on a fluorescence quenching assay published by Zlotnick et al. (2007). The C-terminal truncated core protein containing 149 amino acids of the N-terminal assembly domain fused to a unique cysteine residue at position 150 and was expressed in E. coli using the pET expression system (Merck Chemicals, Darmstadt). Purification of core dimer protein was performed using a sequence of size exclusion chromatography steps. In brief, the cell pellet from 1 L BL21 (DE3) Rosetta2 culture expressing the coding sequence of core protein cloned NdeI/XhoI into expression plasmid pET21b was treated for 1 h on ice with a native lysis buffer (Qproteome Bacterial Protein Prep Kit; Qiagen, Hilden). After a centrifugation step the supernatant was precipitated during 2 h stirring on ice with 0.23 g/ml of solid ammonium sulfate. Following further centrifugation the resulting pellet was resolved in buffer A (100 mM Tris, pH 7.5; 100 mM NaCl; 2 mM DTT) and was subsequently loaded onto a buffer A equilibrated CaptoCore 700 column (GE HealthCare, Frankfurt). The column flow through containing the assembled HBV capsid was dialyzed against buffer N (50 mM NaHCO3 pH 9.6; 5 mM DTT) before urea was added to a final concentration of 3M to dissociate the capsid into core dimers for 1.5 h on ice. The protein solution was then loaded onto a 1 L Sephacryl 5300 column. After elution with buffer N core dimer containing fractions were identified by SDS-PAGE and subsequently pooled and dialyzed against 50 mM HEPES pH 7.5; 5 mM DTT. To improve the assembly capacity of the purified core dimers a second round of assembly and disassembly starting with the addition of 5 M NaCl and including the size exclusion chromatography steps described above was performed. From the last chromatography step core dimer containing fractions were pooled and stored in aliquots at concentrations between 1.5 to 2.0 mg/ml at −80° C.
Immediately before labelling the core protein was reduced by adding freshly prepared DTT in a final concentration of 20 mM. After […] on ice storage buffer and DTT was removed using a Sephadex G-25 column (GE HealthCare, Frankfurt) and 50 mM HEPES, pH 7.5. For labelling 1.6 mg/ml core protein was incubated at 4° C. and darkness overnight with BODIPY-FL maleimide (Invitrogen, Karlsruhe) in a final concentration of 1 mM. After labelling the free dye was removed by an additional desalting step using a Sephadex G-25 column. Labelled core dimers were stored in aliquots at 4° C. In the dimeric state the fluorescence signal of the labelled core protein is high and is quenched during the assembly of the core dimers to high molecular capsid structures. The screening assay was performed in black 384 well microtiter plates in a total assay volume of 10 μl using 50 mM HEPES pH 7.5 and 1.0 to 2.0 μM labelled core protein. Each screening compound was added in 8 different concentrations using a 0.5 log-unit serial dilution starting at a final concentration of 100 μM, 31.6 μM or 10 μM, In any case the DMSO concentration over the entire microtiter plate was 0.5%. The assembly reaction was started by the injection of NaCl to a final concentration of […] which induces the assembly process to approximately 25% of the maximal quenched signal. 6 min after starting the reaction the fluorescence signal was measured using a Clariostar plate reader (BMG Labtech, Ortenberg) with an excitation of 477 nm and an emission of 525 nm. As 100% and 0% assembly control HEPES buffer containing 2.5 M and 0 M NaCl was used. Experiments were performed thrice in triplicates. EC50 values were calculated by non-linear regression analysis using the Graph Pad Prism 6 software (GraphPad Software, La Jolla, USA).

[3] = BODIPY-FL labelled core protein, assembly started with NaCl, read after 6 min, read-out: Assembly Activity

Compound `O=C(c1cc2c(Cl)cccn2c1)N1CCc2n[nH]c(C(=O)N3CC(F)(F)CC34CC4)c2C1` [Example 1, 8-chloro-2-(3-{6,6-difluoro-4-azaspiro[2.4]heptane-4-carbonyl}-2H,4H,5H,6H,7H-pyrazolo[4,3-c]pyridine-5-carbonyl)indolizine] has an EC50 [1] of 1 to 10 µM.

Compound `O=C(c1cc2c(F)cc(F)cn2c1)N1CCc2n[nH]c(C(=O)N3CC(F)(F)CC34CC4)c2C1` [Example 2, 6,8-difluoro-2-(3-{6,6-difluoro-4-azaspiro[2.4]heptane-4-carbonyl}-2H,4H,5H,6H,7H-pyrazolo[4,3-c]pyridine-5-carbonyl)indolizine] has an EC50 [1] of 1 to 10 µM.

With `CC1Cc2[nH]nc(-c3cscn3)c2CN1C(=O)c1cn2ccccc2c1Br` (stereo not shown) [Example 11, 1-bromo-2-[6-methyl-3-(1,3-thiazol-4-yl)-1H,4H,5H,6H,7H-pyrazolo[4,3-c]pyridine-5-carbonyl]indolizine] the EC50 [1] was 1 to 10 µM.

For `O=C(c1cc2ccccn2c1)N1CCc2[nH]nc(-n3ccnn3)c2C1` [Example 28, 2-[3-(1H-1,2,3-triazol-1-yl)-1H,4H,5H,6H,7H-pyrazolo[4,3-c]pyridine-5-carbonyl]indolizine], the IC50 [2, 3] was under 100 µM.

Work on `O=C(NCC1CCCO1)c1[nH]nc2c1CN(C(=O)c1cc3ccccn3c1)CC2` (stereo not shown) [Example 29, 5-(indolizine-2-carbonyl)-N-[(oxolan-2-yl)methyl]-2H,4H,5H,6H,7H-pyrazolo[4,3-c]pyridine-3-carboxamide] yielded an IC50 [2, 3] of under 100 µM.

For `O=C(NCC1CCCOC1)c1[nH]nc2c1CN(C(=O)c1cc3ccccn3c1)CC2` (stereo not shown) [Example 30, 5-(indolizine-2-carbonyl)-N-[(oxan-3-yl)methyl]-2H,4H,5H,6H,7H-pyrazolo[4,3-c]pyridine-3-carboxamide], the IC50 [2, 3] was under 100 µM.

`O=C(c1cc2ccccn2c1)N1CCc2[nH]nc(-c3ccon3)c2C1` [Example 31, 2-[3-(1,2-oxazol-3-yl)-1H,4H,5H,6H,7H-pyrazolo[4,3-c]pyridine-5-carbonyl]indolizine] showed an IC50 [2, 3] of under 5 µM.

Work on `O=C(NC1(C(F)(F)F)CC1)c1[nH]nc2c1CN(C(=O)c1cc3ccccn3c1)CC2` [Example 33, 5-(indolizine-2-carbonyl)-N-[1-(trifluoromethyl)cyclopropyl]-2H,4H,5H,6H,7H-pyrazolo[4,3-c]pyridine-3-carboxamide] yielded an IC50 [2, 3] of under 100 µM.

In the case of `O=C(c1cc2ccccn2c1)N1CCc2noc(-c3cscn3)c2C1` [Example 34, 2-[3-(1,3-thiazol-4-yl)-4H,5H,6H,7H-[1,2]oxazolo[4,3-c]pyridine-5-carbonyl]indolizine], the IC50 [2, 3] is reported as under 5 µM.

Compound `CC(C)(NC(=O)c1[nH]nc2c1CN(C(=O)c1cc3ccccn3c1)CC2)C(F)(F)F` [Example 35, 5-(indolizine-2-carbonyl)-N-(1,1,1-trifluoro-2-methylpropan-2-yl)-2H,4H,5H,6H,7H-pyrazolo[4,3-c]pyridine-3-carboxamide] has an IC50 [2, 3] of under 100 µM.

Work on `O=C(c1cc2ccccn2c1)N1CCc2onc(-c3cscn3)c2C1` [Example 36, 2-[3-(1,3-thiazol-4-yl)-4H,5H,6H,7H-[1,2]oxazolo[4,5-c]pyridine-5-carbonyl]indolizine] yielded an IC50 [2] of under 5 µM.

`O=C(c1cc2ccccn2c1)N1CCc2[nH]nc(-c3cscn3)c2C1` [Example 37, 2-[3-(1,3-thiazol-4-yl)-1H,4H,5H,6H,7H-pyrazolo[4,3-c]pyridine-5-carbonyl]indolizine] gave an IC50 [2, 3] of under 5 µM.

`CC(NC(=O)c1[nH]nc2c1CN(C(=O)c1cc3ccccn3c1)CC2)C1COC1` (stereo not shown) [Example 41, 5-(indolizine-2-carbonyl)-N-[1-(oxetan-3-yl)ethyl]-2H,4H,5H,6H,7H-pyrazolo[4,3-c]pyridine-3-carboxamide] showed an IC50 [2, 3] of under 100 µM.

For `O=C(c1cc2ccccn2c1)N1CCn2ncc(-c3cscn3)c2C1` [Example 43, 2-[3-(1,3-thiazol-4-yl)-4H,5H,6H,7H-pyrazolo[1,5-a]pyrazine-5-carbonyl]indolizine], the IC50 [2, 3] was under 5 µM.

For `CC1Cc2[nH]nc(-c3cscn3)c2CN1C(=O)c1cc2c(F)cc(F)cn2c1` (stereo not shown) [Example 44, 6,8-difluoro-2-[6-methyl-3-(1,3-thiazol-4-yl)-1H,4H,5H,6H,7H-pyrazolo[4,3-c]pyridine-5-carbonyl]indolizine], the IC50 [2, 3] was under 5 µM.

For `C[C@H](NC(=O)c1[nH]nc2c1CN(C(=O)c1cc3ccccn3c1)CC2)C(F)(F)F` [Example 45, 5-(indolizine-2-carbonyl)-N-[(2S)-1,1,1-trifluoropropan-2-yl]-2H,4H,5H,6H,7H-pyrazolo[4,3-c]pyridine-3-carboxamide], the IC50 [2, 3] was under 100 µM.

`C[C@@H](NC(=O)c1[nH]nc2c1CN(C(=O)c1cc3ccccn3c1)CC2)C(F)(F)F` [Example 46, 5-(indolizine-2-carbonyl)-N-[(2R)-1,1,1-trifluoropropan-2-yl]-2H,4H,5H,6H,7H-pyrazolo[4,3-c]pyridine-3-carboxamide] showed an IC50 [2, 3] of under 100 µM.

`CC1Cc2n[nH]c(C(=O)NC(C)C(F)(F)F)c2CN1C(=O)c1cc2c(Cl)cccn2c1` (stereo not shown) [Example 47, 5-(8-chloroindolizine-2-carbonyl)-6-methyl-N-(1,1,1-trifluoropropan-2-yl)-2H,4H,5H,6H,7H-pyrazolo[4,3-c]pyridine-3-carboxamide] was tested, and the IC50 [2, 3] was under 100 µM.

Work on `CC1Cc2n[nH]c(C(=O)NC(C)C(F)(F)F)c2CN1C(=O)c1cc2ccccn2c1` (stereo not shown) [Example 48, 5-(indolizine-2-carbonyl)-6-methyl-N-(1,1,1-trifluoropropan-2-yl)-2H,4H,5H,6H,7H-pyrazolo[4,3-c]pyridine-3-carboxamide] yielded an IC50 [2, 3] of under 100 µM.
